≈ marks a conversion by molar mass, not a printed value. Where two headings read alike, the source gives them in different places.
Experiments:
[1] = tested on: Staphylococcus aureus X400; assay: MIC, standard agar-dilution assay (Table V); assay type: cell-based; settings: Staphylococcus aureus, X400
Protocol: (§1) Especially noteworthy is the improved activity against gram-negative bacteria for several derivatives when compared to the activity of OMT. […] The MIC's in Tables V and VI were determined by standard agar-dilution assays. The MIC's in Table VII were obtained using a conventional broth-dilution microtiter test.

[2] = tested on: Klebsiella pneumoniae X26; assay: MIC, standard agar-dilution assay (Table V); assay type: cell-based; settings: Klebsiella pneumoniae; K. pneumoniae X26; agar dilution; read-out: MIC
Protocol: as §1

[3] = tested on: Streptococcus pyogenes C203; assay: ED50 in mice experimentally infected with S. pyogenes C203 (Table VIII); assay type: in vivo
Protocol: The C-23 modified derivatives of OMT of this invention have shown in vivo antimicrobial activity against experimental infections. When two doses of test compound were administered to mice experimentally infected with a gram-positive bacterium, S. pyogenes C203, the activity observed was measured as an ED50 value [effective dose in mg/kg to protect 50% of the test animals: see Warren Wick, et al., J. Bacteriol. 81, 233-235 (1961)].

Mycoplasma synoviae = assay: MIC, broth-dilution microtiter test (Table VII); assay type: cell-based; settings: Mycoplasmopsis synoviae; M. synoviae; broth-dilution microtiter; read-out: MIC
Protocol: as §1

Mycoplasma gallisepticum = assay: MIC, broth-dilution microtiter test (Table VII); assay type: cell-based; settings: Mycoplasmoides gallisepticum; M. gallisepticum; broth-dilution microtiter; read-out: MIC
Protocol: as §1

[4] = tested on: Pasteurella hemolytica 41D; assay: MIC, broth-dilution microtiter test (Table VII); assay type: cell-based; settings: Pasteurella, P. hemolytica 41D, read-out: MIC
How it was run: (§2)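 Growth inhibition in liquid medium, in a routine microtiter broth-dilution series, gave the MIC against staphylococci and pasteurellae; the gram-negative enteric strain was tested by conventional agar dilution instead.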

Mycoplasma hyorhinis = assay: MIC, broth-dilution microtiter test (Table VII); assay type: cell-based; settings: M. hyorhinis; broth-dilution microtiter; read-out: MIC
Protocol: as §1

[5] = tested on: Pasteurella multocida 17E; assay: MIC, broth-dilution microtiter test (Table VII); assay type: cell-based; settings: Pasteurella multocida; P. multocida 17E, bovine isolate; broth-dilution microtiter; read-out: MIC
How it was run: (§3)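 MICs were determined two ways: a standard agar-dilution assay for the Enterobacter aerogenes strain, and a conventional broth-dilution microtiter test for Staphylococcus aureus and both Pasteurella multocida strains.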

[6] = tested on: Pasteurella multocida 22A; assay: MIC, broth-dilution microtiter test (Table VII); assay type: cell-based; settings: Pasteurella multocida; P. multocida 22A; broth-dilution microtiter; read-out: MIC
How it was run: as §3

[7] = tested on: Pasteurella hemolytica 23C; assay: MIC, broth-dilution microtiter test (Table VII); assay type: cell-based; settings: Pasteurella, P. hemolytica 23C, read-out: MIC
How it was run: as §2

Staphylococcus aureus = assay: MIC, broth-dilution microtiter test (Table VII); assay type: cell-based; settings: Staphylococcus aureus; S. aureus; broth-dilution microtiter; read-out: MIC
How it was run: as §3

[8] = tested on: Pasteurella multocida 60A; assay: MIC, broth-dilution microtiter test (Table VII); assay type: cell-based; settings: Pasteurella multocida; P. multocida 60A, avian isolate; broth-dilution microtiter; read-out: MIC
How it was run: as §3

[9] = tested on: Pasteurella multocida 68C; assay: MIC, broth-dilution microtiter test (Table VII); assay type: cell-based; settings: Pasteurella multocida; P. multocida 68C; broth-dilution microtiter; read-out: MIC
How it was run: as §3

Streptococcus sp. 80 = assay: MIC, broth-dilution microtiter test (Table VII); assay type: cell-based; settings: Streptococcus sp. 80; broth-dilution microtiter; read-out: MIC
Protocol: as §1

[10] = tested on: Pasteurella hemolytica 22C; assay: MIC, broth-dilution microtiter test (Table VII); assay type: cell-based; settings: Pasteurella, P. hemolytica 22C, read-out: MIC
How it was run: as §2

[11] = tested on: Pasteurella multocida 40G; assay: MIC, broth-dilution microtiter test (Table VII); assay type: cell-based; settings: Pasteurella multocida; P. multocida 40G; broth-dilution microtiter; read-out: MIC
How it was run: as §3

[12] = tested on: Haemophilus influenzae Holt; assay: MIC, standard agar-dilution assay (Table V); assay type: cell-based; settings: Haemophilus influenzae; H. influenzae Holt, ampicillin-sensitive strain; agar dilution; read-out: MIC
Protocol: (§4) The MIC's in Tables V and VI were determined by standard agar-dilution assays. The MIC's in Table VII were obtained using a conventional broth-dilution microtiter test.

[13] = tested on: Streptococcus pyogenes C203; assay: MIC, standard agar-dilution assay (Table V); assay type: cell-based; settings: Streptococcus pyogenes; S. pyogenes C203; agar dilution; read-out: MIC
Protocol: as §4

[14] = tested on: Haemophilus influenzae R252; assay: MIC, standard agar-dilution assay (Table V); assay type: cell-based; settings: Haemophilus influenzae, R252
Protocol: as §4

Proteus rettgeri PR7 = assay: MIC, standard agar-dilution assay (Table VI); assay type: cell-based; settings: Providencia rettgeri; P. rettgeri PR7; agar dilution; read-out: MIC
Protocol: as §1

Proteus rettgeri C24 = assay: MIC, standard agar-dilution assay (Table VI); assay type: cell-based; settings: Providencia rettgeri, P. rettgeri C24
Protocol: as §1

[15] = tested on: Klebsiella pneumoniae X68; assay: MIC, standard agar-dilution assay (Table VI); assay type: cell-based; settings: X68
Protocol: as §1

[16] = tested on: Pseudomonas aeruginosa X528; assay: MIC, standard agar-dilution assay (Table VI); assay type: cell-based; settings: P. aeruginosa X528, agar dilution, read-out: MIC
Protocol: as §1

Serratia marcescens X99 = assay: MIC, standard agar-dilution assay (Table VI); assay type: cell-based; settings: S. marcescens X99, agar dilution, read-out: MIC
Protocol: as §1

[17] = tested on: Enterobacter aerogenes C32; assay: MIC, standard agar-dilution assay (Table VI); assay type: cell-based; settings: Klebsiella aerogenes; E. aerogenes C32; agar dilution; read-out: MIC
Protocol: as §1

Salmonella typhi 1335 = assay: MIC, standard agar-dilution assay (Table VI); assay type: cell-based; settings: Salmonella enterica
Protocol: as §1

Serratia marcescens SE3 = assay: MIC, standard agar-dilution assay (Table VI); assay type: cell-based; settings: S. marcescens SE3, agar dilution, read-out: MIC
Protocol: as §1

Proteus inconstans PR33 = assay: MIC, standard agar-dilution assay (Table VI); assay type: cell-based; settings: Providencia alcalifaciens; P. inconstans PR33; agar dilution; read-out: MIC
Protocol: as §1

[18] = tested on: Salmonella heidelberg X514; assay: MIC, standard agar-dilution assay (Table VI); assay type: cell-based; settings: Salmonella enterica; S. heidelberg X514; agar dilution; read-out: MIC
Protocol: as §1

[19] = tested on: Pseudomonas aeruginosa Ps18; assay: MIC, standard agar-dilution assay (Table VI); assay type: cell-based; settings: P. aeruginosa Ps18, agar dilution, read-out: MIC
Protocol: as §1

Enterobacter cloacae EB5 = assay: MIC, standard agar-dilution assay (Table VI); assay type: cell-based; settings: E. cloacae EB5, agar dilution, read-out: MIC
Protocol: as §1

[20] = tested on: Enterobacter aerogenes EB17; assay: MIC, standard agar-dilution assay (Table VI); assay type: cell-based; settings: Klebsiella aerogenes; E. aerogenes EB17; agar dilution; read-out: MIC
Protocol: as §1

Proteus morganii PR15 = assay: MIC, standard agar-dilution assay (Table VI); assay type: cell-based; settings: Morganella morganii; P. morganii PR15; agar dilution; read-out: MIC
Protocol: as §1

[21] = tested on: Citrobacter freundii CF17; assay: MIC, standard agar-dilution assay (Table VI); assay type: cell-based; settings: C. freundii CF17, agar dilution, read-out: MIC
Protocol: as §1

[22] = tested on: Pseudomonas aeruginosa X239; assay: MIC, standard agar-dilution assay (Table VI); assay type: cell-based; settings: P. aeruginosa X239, agar dilution, read-out: MIC
Protocol: as §1

SMILES: CCC1OC(=O)CC(O)C(C)C(OC2OC(C)C(O)C(N(C)C)C2O)C(CC=O)CC(C)C(=O)C=CC(C)=CC1CF (stereo not drawn) [Compound 15, 23-Deoxy-23-fluoro-OMT]
- MIC [1]: 0.5 µg/mL (≈ 0.834 µM)
- MIC [2]: 2 µg/mL (≈ 3.33 µM)
- ED50 ([3]; C203, po, read-out: ED50, Oral): > 100 mg/kg
- ED50 ([3]; C203, sc, mice, subcutaneous, doses given 1 and 4 hours postinfection, read-out: ED50, Subcutaneous): 4.6 mg/kg
- MIC (Mycoplasma synoviae): 0.39 µg/mL (≈ 0.65 µM)
- MIC (Mycoplasma gallisepticum): 0.09 µg/mL (≈ 0.15 µM)
- MIC [4]: 3.12 µg/mL (≈ 5.2 µM)
- MIC (Mycoplasma hyorhinis): 0.78 µg/mL (≈ 1.3 µM)
- MIC [5]: 3.12 µg/mL (≈ 5.2 µM)
- MIC [6]: 3.12 µg/mL (≈ 5.2 µM)
- MIC [7]: 6.25 µg/mL (≈ 10.4 µM)
- MIC (Staphylococcus aureus): 1.56 µg/mL (≈ 2.6 µM)
- MIC [8]: 3.12 µg/mL (≈ 5.2 µM)
- MIC [9]: 3.12 µg/mL (≈ 5.2 µM)
- MIC (Streptococcus sp. 80): ≤ 0.78 µg/mL
- MIC [10]: 3.12 µg/mL (≈ 5.2 µM)
- MIC [11]: 1.56 µg/mL (≈ 2.6 µM)
- MIC [12]: 1 µg/mL (≈ 1.67 µM)
- MIC [13]: 0.125 µg/mL (≈ 0.208 µM)
- MIC [14]: 0.5 µg/mL (≈ 0.834 µM)
- MIC (Proteus rettgeri PR7): 32 µg/mL (≈ 53.4 µM)
- MIC (Proteus rettgeri C24): 32 µg/mL (≈ 53.4 µM)
- MIC [15]: 64 µg/mL (≈ 107 µM)
- MIC [16]: 16 µg/mL (≈ 26.7 µM)
- MIC (Serratia marcescens X99): 64 µg/mL (≈ 107 µM)
- MIC [17]: 64 µg/mL (≈ 107 µM)
- MIC (Salmonella typhi 1335): 64 µg/mL (≈ 107 µM)
- MIC (Serratia marcescens SE3): > 128 µg/mL
- MIC (Proteus inconstans PR33): > 128 µg/mL
- MIC [18]: 64 µg/mL (≈ 107 µM)
- MIC [19]: 32 µg/mL (≈ 53.4 µM)
- MIC (Enterobacter cloacae EB5): > 128 µg/mL
- MIC [20]: 64 µg/mL (≈ 107 µM)
- MIC (Proteus morganii PR15): 64 µg/mL (≈ 107 µM)
- MIC [21]: > 128 µg/mL
- MIC [22]: 64 µg/mL (≈ 107 µM)
